From ChEMBL document CHEMBL4765257, “Synthesis and structure-activity relationship study of pyrrolidine-oxadiazoles as anthelmintics against Haemonchus contortus” (Eur J Med Chem, 2020)

Test system: Haemonchus contortus
Assay: Anti-helmintic activity against fourth stage of Haemonchus contortus larvae assessed as reduction in development of L4 stage incubated for 72 hrs followed by reincubation in humidified environment for 4 days
Assay type: functional, organism-based
Conditions: not given; call rule not given here

| Compound | IC50 [µM] |
| --- | --- |
| O=C(Nc1ccccc1O)N1CCC[C@H]1c1nc(-c2ccccc2)no1 | > 100 |
| O=C(Nc1ccc(Cl)cc1)N1CCC[C@@H]1c1nc(-c2ccccc2)no1 | > 100 |
| O=C(Nc1cccc(O)c1)N1CCC[C@H]1c1nc(-c2ccccc2)no1 | > 100 |
| O=C(Nc1ccc(OC(F)(F)F)cc1)N1CCC[C@H]1c1nc(-c2ccccc2)no1 | 13 |
| O=C(Nc1ccc([N+](=O)[O-])cc1)N1CCC[C@H]1c1nc(-c2ccccc2)no1 | 50 |
| COc1cccc(NC(=O)N2CCC[C@H]2c2nc(-c3ccccc3)no2)c1 | > 100 |
| CN(C)S(=O)(=O)c1ccc(NC(=O)N2CCC[C@H]2c2nc(-c3ccccc3)no2)cc1 | > 100 |
| O=C(Nc1cccnc1)N1CCC[C@H]1c1nc(-c2ccccc2)no1 | > 100 |
| Cc1ccccc1NC(=O)N1CCC[C@H]1c1nc(-c2ccccc2)no1 | > 100 |
| CC(=O)c1ccccc1NC(=O)N1CCC[C@H]1c1nc(-c2ccccc2)no1 | > 100 |
| O=C(Nc1ccncc1)N1CCC[C@H]1c1nc(-c2ccccc2)no1 | > 100 |
| O=C(Nc1ccc(Cl)cc1)N1CCCC1c1nc(-c2ccccc2)no1 (stereo not drawn) | 0.31 |
| COc1ccccc1NC(=O)N1CCC[C@H]1c1nc(-c2ccccc2)no1 | > 100 |
| O=C(Nc1cccc(F)c1)N1CCC[C@H]1c1nc(-c2ccccc2)no1 | > 100 |
| O=C(Nc1ccc(Cl)cc1)N1CCC[C@H]1c1nc(-c2cccc(F)c2)no1 | 18 |
| COc1ccc(NC(=O)N2CCC[C@H]2c2nc(-c3ccccc3)no2)cc1 | > 100 |
| Cc1cccc(-c2noc([C@@H]3CCCN3C(=O)Nc3ccc(Cl)cc3)n2)c1 | > 100 |
| O=C(Nc1cccc(Br)c1)N1CCC[C@H]1c1nc(-c2ccccc2)no1 | > 100 |
| O=C(Nc1ccccc1Br)N1CCC[C@H]1c1nc(-c2ccccc2)no1 | > 100 |
| N#Cc1cccc(NC(=O)N2CCC[C@H]2c2nc(-c3ccccc3)no2)c1 | > 100 |
| COc1ccc(-c2noc([C@@H]3CCCN3C(=O)Nc3ccc(Cl)cc3)n2)cc1 | > 100 |
| Cc1ccccc1-c1noc([C@@H]2CCCN2C(=O)Nc2ccc(Cl)cc2)n1 | 50 |

| Compound | IC50 [µM] |
| --- | --- |
| O=C(Nc1ccc(Cl)cc1)N1CCC[C@H]1c1nc(-c2cccc(Br)c2)no1 | > 100 |
| O=C(Nc1ccc(Cl)cc1)N1CCC[C@H]1c1nc(-c2ccccc2Cl)no1 | 20 |
| O=C(Nc1ccc(Cl)cc1)N1CCC[C@H]1c1nc(-c2ccccc2O)no1 | > 100 |
| N#Cc1cccc(-c2noc([C@@H]3CCCN3C(=O)Nc3ccc(Cl)cc3)n2)c1 | > 100 |
| Cc1ccc(-c2noc([C@@H]3CCCN3C(=O)Nc3ccc(Cl)cc3)n2)cc1 | 50 |
| CC(=O)c1ccc(NC(=O)N2CCC[C@H]2c2nc(-c3ccccc3)no2)cc1 | > 100 |
| Cc1ccc(NC(=O)N2CCC[C@H]2c2nc(-c3ccccc3)no2)cc1 | > 100 |
| O=C(Nc1ccccc1Cl)N1CCC[C@H]1c1nc(-c2ccccc2)no1 | > 100 |
| N#Cc1ccccc1NC(=O)N1CCC[C@H]1c1nc(-c2ccccc2)no1 | > 100 |
| O=C(Nc1ccccc1I)N1CCC[C@H]1c1nc(-c2ccccc2)no1 | > 100 |
| COc1cccc(-c2noc([C@@H]3CCCN3C(=O)Nc3ccc(Cl)cc3)n2)c1 | > 100 |
| O=C(Nc1ccccc1)N1CCC[C@H]1c1nc(-c2ccccc2)no1 | > 100 |
| CC(C)c1ccc(NC(=O)N2CCC[C@H]2c2nc(-c3ccccc3)no2)cc1 | > 100 |
| O=C(Nc1ccc(F)cc1)N1CCC[C@H]1c1nc(-c2ccccc2)no1 | > 100 |
| O=C(Nc1ccc(O)cc1)N1CCC[C@H]1c1nc(-c2ccccc2)no1 | > 100 |
| CS(=O)(=O)c1ccc(NC(=O)N2CCC[C@H]2c2nc(-c3ccccc3)no2)cc1 | > 100 |
| COc1ccccc1-c1noc([C@@H]2CCCN2C(=O)Nc2ccc(Cl)cc2)n1 | > 100 |
| CC(=O)c1cccc(NC(=O)N2CCC[C@H]2c2nc(-c3ccccc3)no2)c1 | > 100 |
| O=C(Nc1cccc(Cl)c1)N1CCC[C@H]1c1nc(-c2ccccc2)no1 | > 100 |
| Cc1cccc(NC(=O)N2CCC[C@H]2c2nc(-c3ccccc3)no2)c1 | > 100 |
| O=C(Nc1ccc(Cl)cc1)N1CCC[C@H]1c1nc(-c2ccc(O)cc2)no1 | > 100 |
| O=C(Nc1ccccc1F)N1CCC[C@H]1c1nc(-c2ccccc2)no1 | > 100 |

Test system: not listed separately
Assay: Cytotoxicity against human MCF-10A cells assessed as inhibition of cell viability at 50 uM measured after 48 hrs by DAPI staining based analysis
Conditions: read-out: INH

| Compound | cytotoxicity at 48 h, 50 µM [%] |
| --- | --- |
| O=C(Nc1ccc(OC(F)(F)F)cc1)N1CCC[C@H]1c1nc(-c2ccccc2)no1 | 18 |
| O=C(Nc1ccc([N+](=O)[O-])cc1)N1CCC[C@H]1c1nc(-c2ccccc2)no1 | 22 |
| O=C(Nc1ccc(Cl)cc1)N1CCC[C@H]1c1nc(-c2cccc(F)c2)no1 | 22 |
| Cc1cccc(-c2noc([C@@H]3CCCN3C(=O)Nc3ccc(Cl)cc3)n2)c1 | 29 |
| COc1ccc(-c2noc([C@@H]3CCCN3C(=O)Nc3ccc(Cl)cc3)n2)cc1 | 13 |
| Cc1ccccc1-c1noc([C@@H]2CCCN2C(=O)Nc2ccc(Cl)cc2)n1 | 36 |
| O=C(Nc1ccc(Cl)cc1)N1CCC[C@H]1c1nc(-c2cccc(Br)c2)no1 | 20 |
| O=C(Nc1ccc(Cl)cc1)N1CCC[C@H]1c1nc(-c2ccccc2Cl)no1 | 40 |
| N#Cc1cccc(-c2noc([C@@H]3CCCN3C(=O)Nc3ccc(Cl)cc3)n2)c1 | 16 |
| Cc1ccc(-c2noc([C@@H]3CCCN3C(=O)Nc3ccc(Cl)cc3)n2)cc1 | 47 |

Test system: Haemonchus contortus
Assay: Anti-helmintic activity against third-stage Haemonchus contortus larvae assessed as inhibition of xL3 motility measured after 72 hrs
Assay type: functional, organism-based
Conditions: not given

| Compound | IC50 |
| --- | --- |
| Cc1ccc(-c2noc([C@@H]3CCCN3C(=O)Nc3ccc(Cl)cc3)n2)cc1 | Active |

Same assay, conditions: Haemonchus contortus, 72 h; read-out: IC50

| Compound | IC50 [µM] |
| --- | --- |
| O=C(Nc1ccccc1O)N1CCC[C@H]1c1nc(-c2ccccc2)no1 | > 100 |
| O=C(Nc1ccc(Cl)cc1)N1CCC[C@@H]1c1nc(-c2ccccc2)no1 | > 100 |
| O=C(Nc1cccc(O)c1)N1CCC[C@H]1c1nc(-c2ccccc2)no1 | > 100 |
| O=C(Nc1ccc(OC(F)(F)F)cc1)N1CCC[C@H]1c1nc(-c2ccccc2)no1 | 4.2 |
| O=C(Nc1ccc([N+](=O)[O-])cc1)N1CCC[C@H]1c1nc(-c2ccccc2)no1 | 50 |
| COc1cccc(NC(=O)N2CCC[C@H]2c2nc(-c3ccccc3)no2)c1 | > 100 |
| CN(C)S(=O)(=O)c1ccc(NC(=O)N2CCC[C@H]2c2nc(-c3ccccc3)no2)cc1 | > 100 |
| O=C(Nc1cccnc1)N1CCC[C@H]1c1nc(-c2ccccc2)no1 | > 100 |
| Cc1ccccc1NC(=O)N1CCC[C@H]1c1nc(-c2ccccc2)no1 | > 100 |
| CC(=O)c1ccccc1NC(=O)N1CCC[C@H]1c1nc(-c2ccccc2)no1 | > 100 |
| O=C(Nc1ccncc1)N1CCC[C@H]1c1nc(-c2ccccc2)no1 | > 100 |
| O=C(Nc1ccc(Cl)cc1)N1CCCC1c1nc(-c2ccccc2)no1 (stereo not drawn) | 3.46 |
| COc1ccccc1NC(=O)N1CCC[C@H]1c1nc(-c2ccccc2)no1 | > 100 |
| O=C(Nc1cccc(F)c1)N1CCC[C@H]1c1nc(-c2ccccc2)no1 | > 100 |
| O=C(Nc1ccc(Cl)cc1)N1CCC[C@H]1c1nc(-c2cccc(F)c2)no1 | 8.1 |
| COc1ccc(NC(=O)N2CCC[C@H]2c2nc(-c3ccccc3)no2)cc1 | > 100 |
| Cc1cccc(-c2noc([C@@H]3CCCN3C(=O)Nc3ccc(Cl)cc3)n2)c1 | 1.9 |
| O=C(Nc1cccc(Br)c1)N1CCC[C@H]1c1nc(-c2ccccc2)no1 | > 100 |
| O=C(Nc1ccccc1Br)N1CCC[C@H]1c1nc(-c2ccccc2)no1 | > 100 |
| N#Cc1cccc(NC(=O)N2CCC[C@H]2c2nc(-c3ccccc3)no2)c1 | > 100 |
| COc1ccc(-c2noc([C@@H]3CCCN3C(=O)Nc3ccc(Cl)cc3)n2)cc1 | 50 |
| Cc1ccccc1-c1noc([C@@H]2CCCN2C(=O)Nc2ccc(Cl)cc2)n1 | 0.78 |

| Compound | IC50 [µM] |
| --- | --- |
| O=C(Nc1ccc(Cl)cc1)N1CCC[C@H]1c1nc(-c2cccc(Br)c2)no1 | 1.1 |
| O=C(Nc1ccc(Cl)cc1)N1CCC[C@H]1c1nc(-c2ccccc2Cl)no1 | 9.2 |
| O=C(Nc1ccc(Cl)cc1)N1CCC[C@H]1c1nc(-c2ccccc2O)no1 | > 100 |
| N#Cc1cccc(-c2noc([C@@H]3CCCN3C(=O)Nc3ccc(Cl)cc3)n2)c1 | > 100 |
| CC(=O)c1ccc(NC(=O)N2CCC[C@H]2c2nc(-c3ccccc3)no2)cc1 | > 100 |
| Cc1ccc(NC(=O)N2CCC[C@H]2c2nc(-c3ccccc3)no2)cc1 | > 100 |
| O=C(Nc1ccccc1Cl)N1CCC[C@H]1c1nc(-c2ccccc2)no1 | > 100 |
| N#Cc1ccccc1NC(=O)N1CCC[C@H]1c1nc(-c2ccccc2)no1 | > 100 |
| O=C(Nc1ccccc1I)N1CCC[C@H]1c1nc(-c2ccccc2)no1 | > 100 |
| COc1cccc(-c2noc([C@@H]3CCCN3C(=O)Nc3ccc(Cl)cc3)n2)c1 | > 100 |
| O=C(Nc1ccccc1)N1CCC[C@H]1c1nc(-c2ccccc2)no1 | > 100 |
| CC(C)c1ccc(NC(=O)N2CCC[C@H]2c2nc(-c3ccccc3)no2)cc1 | > 100 |
| O=C(Nc1ccc(F)cc1)N1CCC[C@H]1c1nc(-c2ccccc2)no1 | > 100 |
| O=C(Nc1ccc(O)cc1)N1CCC[C@H]1c1nc(-c2ccccc2)no1 | > 100 |
| CS(=O)(=O)c1ccc(NC(=O)N2CCC[C@H]2c2nc(-c3ccccc3)no2)cc1 | > 100 |
| COc1ccccc1-c1noc([C@@H]2CCCN2C(=O)Nc2ccc(Cl)cc2)n1 | > 100 |
| CC(=O)c1cccc(NC(=O)N2CCC[C@H]2c2nc(-c3ccccc3)no2)c1 | > 100 |
| O=C(Nc1cccc(Cl)c1)N1CCC[C@H]1c1nc(-c2ccccc2)no1 | > 100 |
| Cc1cccc(NC(=O)N2CCC[C@H]2c2nc(-c3ccccc3)no2)c1 | > 100 |
| O=C(Nc1ccc(Cl)cc1)N1CCC[C@H]1c1nc(-c2ccc(O)cc2)no1 | > 100 |
| O=C(Nc1ccccc1F)N1CCC[C@H]1c1nc(-c2ccccc2)no1 | > 100 |

Test system: MCF-10A
Assay: Cytotoxicity against human MCF-10A cells assessed as inhibition of cell viability measured after 48 hrs by DAPI staining based analysis
Conditions: not given

| Compound | IC50 [µM] |
| --- | --- |
| O=C(Nc1ccc(OC(F)(F)F)cc1)N1CCC[C@H]1c1nc(-c2ccccc2)no1 | > 50 |
| O=C(Nc1ccc([N+](=O)[O-])cc1)N1CCC[C@H]1c1nc(-c2ccccc2)no1 | > 50 |
| O=C(Nc1ccc(Cl)cc1)N1CCC[C@H]1c1nc(-c2cccc(F)c2)no1 | > 50 |
| Cc1cccc(-c2noc([C@@H]3CCCN3C(=O)Nc3ccc(Cl)cc3)n2)c1 | > 50 |
| COc1ccc(-c2noc([C@@H]3CCCN3C(=O)Nc3ccc(Cl)cc3)n2)cc1 | > 50 |
| Cc1ccccc1-c1noc([C@@H]2CCCN2C(=O)Nc2ccc(Cl)cc2)n1 | > 50 |
| O=C(Nc1ccc(Cl)cc1)N1CCC[C@H]1c1nc(-c2cccc(Br)c2)no1 | > 50 |
| O=C(Nc1ccc(Cl)cc1)N1CCC[C@H]1c1nc(-c2ccccc2Cl)no1 | > 50 |
| N#Cc1cccc(-c2noc([C@@H]3CCCN3C(=O)Nc3ccc(Cl)cc3)n2)c1 | > 50 |
| Cc1ccc(-c2noc([C@@H]3CCCN3C(=O)Nc3ccc(Cl)cc3)n2)cc1 | > 50 |
